Source: patent US20230310428A1, “EGFR INHIBITOR AND PREPARATION METHOD AND USE THEREOF” (HONGYUN BIOTECH CO., LTD., priority 2020, published 2023)

How the values were obtained:
Experiment in all cases: Growth inhibitory activity of compounds on BaF3 cell lines stably transfected with kinase (MTS, 48 h)
Format in all cases: cell-based
[1] = molecular target: T1, various mutants of kinase EGFR (BaF3 cell lines stably transfected with kinase) (Homo sapiens, UniProt P00533, T790M/C797S, form not given); conditions: BaF3 cells stably transfected with EGFR Δ19Del/T790M/C797S, read-out: IC50, growth inhibition, Δ19Del/T790M/C797S
T1 construct: other: BaF3 cells stably transfected with EGFR Δ19Del/T790M/C797S; MTS, 48; other: BaF3 cell line stably transfected with EGFR Δ19Del/T790M/C7
In short: (§1)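 First, cells were seeded and treated with an eight-point threefold dilution series starting at 10 µM (0.1% DMSO). After 48 h at 37 °C, MTS reagent was added for 1-4 h before absorbance at 490 nm. Inhibition rates gave the IC50.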

[2] = molecular target: T2, various mutants of kinase EGFR (BaF3 cell lines stably transfected with kinase) (Homo sapiens, UniProt P00533, T790M, form not given); conditions: BaF3 cells stably transfected with EGFR Δ19Del/T790M, read-out: IC50, growth inhibition, Δ19Del/T790M
T2 construct: other: BaF3 cells stably transfected with EGFR Δ19Del/T790M; MTS, 48 h; other: BaF3 cell line stably transfected with EGFR Δ19Del/T790M; MTS, 48
T2 sequence (P00533 with tags, fused parts or gaps DEL746-750/T790M, form open): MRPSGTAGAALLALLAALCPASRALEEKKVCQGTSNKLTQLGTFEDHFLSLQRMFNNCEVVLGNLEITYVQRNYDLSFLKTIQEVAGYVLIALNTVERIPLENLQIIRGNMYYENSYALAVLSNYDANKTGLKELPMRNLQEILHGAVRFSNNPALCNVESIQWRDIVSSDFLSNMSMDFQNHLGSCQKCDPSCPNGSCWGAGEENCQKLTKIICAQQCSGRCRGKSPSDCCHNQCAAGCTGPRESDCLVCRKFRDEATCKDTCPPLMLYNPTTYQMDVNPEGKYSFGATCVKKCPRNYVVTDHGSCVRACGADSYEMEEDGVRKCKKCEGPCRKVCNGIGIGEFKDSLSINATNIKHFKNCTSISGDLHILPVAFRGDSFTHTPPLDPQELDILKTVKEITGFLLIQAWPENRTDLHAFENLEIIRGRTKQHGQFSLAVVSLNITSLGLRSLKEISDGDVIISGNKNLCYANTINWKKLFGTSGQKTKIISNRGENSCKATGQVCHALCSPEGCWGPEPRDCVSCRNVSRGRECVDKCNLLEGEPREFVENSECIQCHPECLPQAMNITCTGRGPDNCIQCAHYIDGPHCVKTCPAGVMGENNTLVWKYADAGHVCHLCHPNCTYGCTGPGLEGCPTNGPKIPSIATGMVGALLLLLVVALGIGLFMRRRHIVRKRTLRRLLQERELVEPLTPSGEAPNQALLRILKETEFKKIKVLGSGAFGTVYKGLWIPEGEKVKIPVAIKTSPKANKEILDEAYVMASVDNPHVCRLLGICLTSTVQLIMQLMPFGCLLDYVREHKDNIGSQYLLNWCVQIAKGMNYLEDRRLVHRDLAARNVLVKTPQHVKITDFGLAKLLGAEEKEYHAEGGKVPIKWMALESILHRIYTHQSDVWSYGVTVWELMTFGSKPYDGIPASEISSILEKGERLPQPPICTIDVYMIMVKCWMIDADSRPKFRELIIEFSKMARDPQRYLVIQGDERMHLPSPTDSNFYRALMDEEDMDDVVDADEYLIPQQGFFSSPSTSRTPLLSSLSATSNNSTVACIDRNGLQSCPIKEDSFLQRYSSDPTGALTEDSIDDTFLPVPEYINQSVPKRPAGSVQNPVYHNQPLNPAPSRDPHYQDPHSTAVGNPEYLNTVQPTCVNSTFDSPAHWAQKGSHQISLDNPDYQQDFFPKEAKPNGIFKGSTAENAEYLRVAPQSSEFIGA
In short: as §1

[3] = molecular target: T3, various mutants of kinase EGFR (BaF3 cell lines stably transfected with kinase) (Homo sapiens, UniProt P00533, C797S/L858R/T790M); conditions: BaF3 cells stably transfected with EGFR L858R/T790M/C797S, read-out: IC50, growth inhibition, L858R/T790M/C797S
T3 construct: expressed in transfected cells; host or cells: BaF3
T3 sequence (P00533 25-1210 T790M/C797S/L858R): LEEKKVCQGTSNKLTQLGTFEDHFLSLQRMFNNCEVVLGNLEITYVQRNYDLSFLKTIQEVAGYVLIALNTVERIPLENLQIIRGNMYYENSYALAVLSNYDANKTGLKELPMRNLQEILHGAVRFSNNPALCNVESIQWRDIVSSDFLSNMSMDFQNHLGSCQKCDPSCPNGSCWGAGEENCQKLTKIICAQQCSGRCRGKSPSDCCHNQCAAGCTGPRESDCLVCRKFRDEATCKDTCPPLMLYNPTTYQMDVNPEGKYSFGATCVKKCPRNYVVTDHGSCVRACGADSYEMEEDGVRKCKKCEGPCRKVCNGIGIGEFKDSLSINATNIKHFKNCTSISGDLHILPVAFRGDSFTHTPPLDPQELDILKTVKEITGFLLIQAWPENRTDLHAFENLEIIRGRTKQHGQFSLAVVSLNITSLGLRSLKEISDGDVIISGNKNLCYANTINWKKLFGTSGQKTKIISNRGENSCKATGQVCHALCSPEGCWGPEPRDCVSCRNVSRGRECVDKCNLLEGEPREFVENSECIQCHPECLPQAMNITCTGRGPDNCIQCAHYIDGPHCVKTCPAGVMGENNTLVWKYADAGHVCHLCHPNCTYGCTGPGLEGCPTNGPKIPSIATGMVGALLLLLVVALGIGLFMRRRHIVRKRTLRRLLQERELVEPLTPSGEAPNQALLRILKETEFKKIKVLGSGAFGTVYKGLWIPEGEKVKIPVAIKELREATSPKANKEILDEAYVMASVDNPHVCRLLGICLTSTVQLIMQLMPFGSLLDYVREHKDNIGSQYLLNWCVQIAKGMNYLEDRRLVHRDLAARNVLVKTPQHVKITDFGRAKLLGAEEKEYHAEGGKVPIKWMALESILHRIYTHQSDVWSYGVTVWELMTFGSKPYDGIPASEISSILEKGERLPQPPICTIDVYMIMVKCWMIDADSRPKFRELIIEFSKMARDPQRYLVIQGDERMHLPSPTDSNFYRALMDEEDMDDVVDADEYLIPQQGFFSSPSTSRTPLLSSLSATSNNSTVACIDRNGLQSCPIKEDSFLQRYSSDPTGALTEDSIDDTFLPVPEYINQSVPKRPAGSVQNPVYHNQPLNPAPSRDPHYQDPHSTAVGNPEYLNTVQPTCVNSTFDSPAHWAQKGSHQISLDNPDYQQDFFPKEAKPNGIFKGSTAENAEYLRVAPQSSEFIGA
In short: as §1

[4] = molecular target: T4, various mutants of kinase EGFR (BaF3 cell lines stably transfected with kinase) (Homo sapiens, UniProt P00533, L858R/T790M); conditions: BaF3 cells stably transfected with EGFR L858R/T790M, read-out: IC50, growth inhibition, L858R/T790M
T4 construct: expressed in transfected cells; host or cells: BaF3
T4 sequence (P00533 25-1210 T790M/L858R): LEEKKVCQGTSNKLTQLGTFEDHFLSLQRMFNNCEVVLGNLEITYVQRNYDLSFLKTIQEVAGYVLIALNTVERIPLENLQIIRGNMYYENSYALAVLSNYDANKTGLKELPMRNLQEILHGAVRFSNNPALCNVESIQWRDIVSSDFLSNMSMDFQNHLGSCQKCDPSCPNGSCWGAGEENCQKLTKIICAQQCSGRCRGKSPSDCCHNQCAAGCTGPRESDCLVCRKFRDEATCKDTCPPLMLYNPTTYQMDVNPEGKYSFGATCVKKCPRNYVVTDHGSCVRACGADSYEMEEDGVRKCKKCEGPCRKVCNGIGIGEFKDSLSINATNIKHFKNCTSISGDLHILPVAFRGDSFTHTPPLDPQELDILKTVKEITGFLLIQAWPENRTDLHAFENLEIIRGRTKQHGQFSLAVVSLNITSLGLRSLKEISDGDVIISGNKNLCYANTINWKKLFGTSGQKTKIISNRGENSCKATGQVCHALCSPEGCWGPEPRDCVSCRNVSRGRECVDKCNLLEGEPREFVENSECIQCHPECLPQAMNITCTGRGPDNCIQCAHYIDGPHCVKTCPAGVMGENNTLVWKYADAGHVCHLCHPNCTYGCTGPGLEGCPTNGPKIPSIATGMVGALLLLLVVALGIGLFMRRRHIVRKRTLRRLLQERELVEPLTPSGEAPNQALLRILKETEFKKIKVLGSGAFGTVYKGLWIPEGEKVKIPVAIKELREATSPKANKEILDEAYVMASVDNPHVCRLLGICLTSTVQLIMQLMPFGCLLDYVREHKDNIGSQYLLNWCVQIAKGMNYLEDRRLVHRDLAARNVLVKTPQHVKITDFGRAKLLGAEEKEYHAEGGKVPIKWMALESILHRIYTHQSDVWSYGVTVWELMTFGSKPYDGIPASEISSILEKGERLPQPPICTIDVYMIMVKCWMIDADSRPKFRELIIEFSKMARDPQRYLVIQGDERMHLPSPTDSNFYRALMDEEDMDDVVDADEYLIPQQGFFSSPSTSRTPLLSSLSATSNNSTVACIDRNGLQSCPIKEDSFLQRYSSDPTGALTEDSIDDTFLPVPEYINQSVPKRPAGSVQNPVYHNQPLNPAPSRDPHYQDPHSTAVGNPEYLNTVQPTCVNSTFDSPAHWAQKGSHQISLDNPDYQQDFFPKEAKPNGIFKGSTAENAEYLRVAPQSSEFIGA
In short: as §1

[5] = molecular target: T5, various mutants of kinase EGFR (BaF3 cell lines stably transfected with kinase) (Homo sapiens, UniProt P00533); conditions: BaF3 cells stably transfected with EGFR Δ19Del, read-out: IC50, growth inhibition, Δ19Del
T5 construct: other: BaF3 cells stably transfected with EGFR Δ19Del; MTS, 48 h; other: BaF3 cell line stably transfected with EGFR Δ19Del
In short: as §1

[6] = molecular target: T6, various mutants of kinase EGFR (BaF3 cell lines stably transfected with kinase) (Homo sapiens, UniProt P00533, L858R); conditions: BaF3 cells stably transfected with EGFR L858R, read-out: IC50, growth inhibition, L858R
T6 construct: expressed in transfected cells; host or cells: BaF3
T6 sequence (P00533 25-1210 L858R): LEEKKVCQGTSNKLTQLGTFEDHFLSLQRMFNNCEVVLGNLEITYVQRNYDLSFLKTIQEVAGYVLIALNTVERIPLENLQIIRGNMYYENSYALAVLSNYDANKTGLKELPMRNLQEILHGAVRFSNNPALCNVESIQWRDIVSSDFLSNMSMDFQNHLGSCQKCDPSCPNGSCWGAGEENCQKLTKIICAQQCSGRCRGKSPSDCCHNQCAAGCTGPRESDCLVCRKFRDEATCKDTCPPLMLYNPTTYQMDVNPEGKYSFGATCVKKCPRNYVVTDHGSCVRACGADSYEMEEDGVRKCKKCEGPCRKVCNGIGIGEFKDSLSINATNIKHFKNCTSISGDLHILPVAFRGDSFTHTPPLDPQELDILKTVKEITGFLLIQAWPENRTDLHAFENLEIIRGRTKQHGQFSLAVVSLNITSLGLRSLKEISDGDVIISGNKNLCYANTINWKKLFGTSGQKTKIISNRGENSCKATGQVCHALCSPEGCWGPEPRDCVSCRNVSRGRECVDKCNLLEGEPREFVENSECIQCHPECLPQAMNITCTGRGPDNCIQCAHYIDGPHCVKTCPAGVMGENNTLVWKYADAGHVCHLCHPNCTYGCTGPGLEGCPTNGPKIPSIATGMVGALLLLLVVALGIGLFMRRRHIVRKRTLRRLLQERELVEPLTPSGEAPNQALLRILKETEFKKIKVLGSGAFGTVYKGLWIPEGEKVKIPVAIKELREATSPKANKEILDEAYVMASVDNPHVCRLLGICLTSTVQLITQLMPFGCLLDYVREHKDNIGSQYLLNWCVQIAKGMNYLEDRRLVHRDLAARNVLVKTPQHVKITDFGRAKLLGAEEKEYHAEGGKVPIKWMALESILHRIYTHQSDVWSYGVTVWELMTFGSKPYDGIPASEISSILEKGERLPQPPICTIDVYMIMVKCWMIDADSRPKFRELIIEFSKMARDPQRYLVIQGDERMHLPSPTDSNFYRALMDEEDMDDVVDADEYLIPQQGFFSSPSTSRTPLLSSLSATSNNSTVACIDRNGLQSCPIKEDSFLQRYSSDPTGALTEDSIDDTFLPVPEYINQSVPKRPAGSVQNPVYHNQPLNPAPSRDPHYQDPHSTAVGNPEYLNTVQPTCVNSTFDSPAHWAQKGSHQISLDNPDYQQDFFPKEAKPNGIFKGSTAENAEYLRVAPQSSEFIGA
In short: as §1

Row | SMILES | IC50 [1] | IC50 [2] | IC50 [3] | IC50 [4] | IC50 [5] | IC50 [6]
1 | COc1cc(N2CCC(N(C)C)C2)c(C)cc1Nc1ncc(C(F)(F)F)c(Nc2ccc3nccnc3c2N(C)S(C)(=O)=O)n1 (stereo not drawn) [Compound I-209] | ≤ 50 nM | ≤ 50 nM | ≤ 50 nM | ≤ 50 nM | 50 to 500 nM | ≤ 50 nM
2 | CCc1cc(Nc2ncc(C(F)(F)F)c(Nc3ccc4nccnc4c3N(C)S(C)(=O)=O)n2)c(OC)cc1N1CCC(N(C)C)C1 (stereo not drawn) [Compound I-210] | ≤ 50 nM | ≤ 50 nM | ≤ 50 nM | ≤ 50 nM | ≤ 50 nM | ≤ 50 nM
3 | CCN(c1c(Nc2nc(Nc3ccc(N4CCC(N5CCN(C)CC5)CC4)cc3OC)ncc2Br)ccc2nccnc12)S(C)(=O)=O [Compound I-211] | ≤ 50 nM | ≤ 50 nM | ≤ 50 nM | ≤ 50 nM | 50 to 500 nM | ≤ 50 nM
4 | CCc1cc(Nc2ncc(Br)c(Nc3ccc4nccnc4c3N(CC)S(C)(=O)=O)n2)c(OC)nc1N1CCC(N2CCN(C)CC2)CC1 [Compound I-212] | ≤ 50 nM | ≤ 50 nM | ≤ 50 nM | ≤ 50 nM | 50 to 500 nM | 50 to 500 nM
5 | CCN(c1c(Nc2nc(Nc3cc(CC4CC4)c(N4CCC(N5CCN(C)CC5)CC4)cc3OC)ncc2Br)ccc2nccnc12)S(C)(=O)=O [Compound I-213] | ≤ 50 nM | ≤ 50 nM | ≤ 50 nM | ≤ 50 nM | ≤ 50 nM | ≤ 50 nM
6 | CCS(=O)(=O)N(C)c1c(Nc2nc(Nc3ccc(N4CCC(N5CCN(C)CC5)CC4)cc3OC)ncc2Br)ccc2nccnc12 [Compound I-214] | ≤ 50 nM | ≤ 50 nM | 50 to 500 nM | ≤ 50 nM | 50 to 500 nM | 50 to 500 nM
7 | COc1cc(N2CCC(N3CCN(C)CC3)CC2)ccc1Nc1ncc(Br)c(Nc2ccc3nccnc3c2N(C)S(=O)(=O)C2CC2)n1 [Compound I-215] | ≤ 50 nM | ≤ 50 nM | ≤ 50 nM | ≤ 50 nM | 50 to 500 nM | 50 to 500 nM
8 | COc1nc(N2CCC(N3CCN(C)CC3)CC2)ccc1Nc1ncc(Br)c(Nc2ccc3nccnc3c2N(C)S(=O)(=O)C2CC2)n1 [Compound I-216] | 50 to 500 nM | 500 to 2500 nM | 50 to 500 nM | 500 to 2500 nM | 500 to 2500 nM | 500 to 2500 nM
9 | CCc1cc(Nc2ncc(Br)c(Nc3ccc4nccnc4c3N(C)S(=O)(=O)C3CC3)n2)c(OC)nc1N1CCC(N2CCN(C)CC2)CC1 [Compound I-218] | ≤ 50 nM | ≤ 50 nM | ≤ 50 nM | ≤ 50 nM | 50 to 500 nM | 50 to 500 nM
10 | C=Cc1cc(Nc2ncc(Br)c(Nc3ccc4nccnc4c3N(C)S(=O)(=O)C3CC3)n2)c(OC(F)(F)F)cc1N1CCC(N2CCN(C)CC2)CC1 [Compound I-219] | ≤ 50 nM | ≤ 50 nM | 50 to 500 nM | 50 to 500 nM | 50 to 500 nM | 50 to 500 nM
11 | COc1cc(N2CCC(N3CCN(C)CC3)CC2)c(CC2CC2)cc1Nc1ncc(Br)c(Nc2ccc3nccnc3c2N(C)S(=O)(=O)C2CC2)n1 [Compound I-220] | ≤ 50 nM | 50 to 500 nM | ≤ 50 nM | 50 to 500 nM | 50 to 500 nM | 50 to 500 nM
12 | COc1cc(N2CCC(N(C)C)CC2)c(C)cc1Nc1ncc(Br)c(Nc2ccc3nccnc3c2N(C)S(=O)(=O)C2CC2)n1 [Compound I-221] | ≤ 50 nM | ≤ 50 nM | ≤ 50 nM | ≤ 50 nM | 50 to 500 nM | 50 to 500 nM
13 | COc1cc(N2CCC(N(C)C)C2)c(C)cc1Nc1ncc(Br)c(Nc2ccc3nccnc3c2N(C)S(=O)(=O)C2CC2)n1 (stereo not drawn) [Compound I-222] | ≤ 50 nM | ≤ 50 nM | ≤ 50 nM | ≤ 50 nM | 50 to 500 nM | 50 to 500 nM
14 | COc1cc(N2CCC(N3CCN(C)CC3)CC2)ccc1Nc1ncc(Br)c(Nc2ccc3nccnc3c2N(C2CC2)S(C)(=O)=O)n1 [Compound I-223] | ≤ 50 nM | ≤ 50 nM | ≤ 50 nM | ≤ 50 nM | 50 to 500 nM | 50 to 500 nM
